Results published in patent publication US8007767B2, “Amino methyl imidazoles and related compounds as C5a receptor modulators” (Novartis International Pharmaceutical Ltd., priority 2002, dated 2011).
pKi: −log10 of the molar value.

Target: T1, human C5a receptor (Homo sapiens, UniProt P21730)
T1 construct: endogenous in cells; host or cells: U937 cells differentiated with 1 mM dibutyryl cAMP
T1 sequence (P21730 1-350): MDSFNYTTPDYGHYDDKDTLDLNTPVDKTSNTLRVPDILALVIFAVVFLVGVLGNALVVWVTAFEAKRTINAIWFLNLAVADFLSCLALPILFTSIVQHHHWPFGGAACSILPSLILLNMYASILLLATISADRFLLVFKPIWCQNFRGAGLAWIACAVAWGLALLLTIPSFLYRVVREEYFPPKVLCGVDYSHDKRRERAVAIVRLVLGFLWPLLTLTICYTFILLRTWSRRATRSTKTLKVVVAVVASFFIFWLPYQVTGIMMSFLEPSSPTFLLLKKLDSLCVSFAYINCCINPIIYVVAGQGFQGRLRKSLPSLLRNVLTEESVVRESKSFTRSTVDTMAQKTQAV
Assay: standard assay of C5a receptor mediated calcium mobilization (Example 20)
Assay type: cell-based
Details: differentiated U937 cells, read-out: Ki < 1 μM
Experimental: U937 cells are grown in differentiation media (1 mM dibutyrl cAMP in RPMI 1640 medium containing 10% fetal bovine serum) for 48 hours at 37° C. then reseeded onto 96-well plates suitable for use in a FLIPR™ Plate Reader (Molecular Devices Corp., Sunnyvale Calif.). Cells are grown an additional 24 hours (to 70-90% confluence) before the assay. The cells are then washed once with Krebs Ringer solution. FLUO-3 calcium sensitive dye (Molecular Probes, Inc. Eugene, Oreg.) is added to 10 μg/mL and incubated with the cells at room temperature for 1 to 2 hours. The 96 well plates are then washed to remove excess dye.
C. Assays for the Identification of Receptor Modulatory Agents: Antagonists and Agonists
Those of skill in the art will recognize that the calcium mobilization assay described above may be readily adapted for identifying test compounds as having agonist or antagonist activity, at the human C5a receptor.
For example, in order to identify antagonist compounds, differentiated U937 cells are washed and incubated with Fluo-3 dye as described above. One hour prior to measuring the fluorescence signal, a subset of the cells is incubated with a 1 uM concentration of at least one compound to be tested. The fluorescence response upon the subsequent addition of 0.3 nM (final concentration) human recombinant C5a is monitored using the FLIPR™ plate reader. Antagonist compounds elicit at least a 2-fold decrease in the fluorescence response relative to that measured in the presence of human C5a alone. Preferred antagonist compounds elicit at least a 5-fold, preferably at least a 10-fold, and more preferably at least a 20-fold decrease in the fluorescence response relative to that measured in the presence of human C5a alone.

| Compound | pKi |
| --- | --- |
| CCCCn1c(CN(Cc2ccccc2)Cc2ccc3c(c2)OCO3)cnc1C1CCCCC1 [Compound 9, Benzo[1,3]dioxol-5-ylmethyl-benzyl(1-butyl-2-cyclohexyl-3H-imidazol-5-ylmethyl)-amine] | > 6.00 |
| CCCCn1c(CN(Cc2ccccc2)Cc2ccc3c(c2)OCCO3)cnc1C1CCCCC1 [Compound 10, Benzyl-(1-butyl-2-cyclohexyl-3H-imidazol-5-ylmethyl)-(2,3-dihydro-benzo[1,4]dioxin-6-ylmethyl)-amine] | > 6.00 |
| CCCCn1c(C2CC2)nc(-c2ccccc2)c1CN(Cc1ccc2c(c1)OCO2)Cc1ccc2c(c1)OCO2 [Compound 11, 1-(1,3-benzodioxol-5-yl)-N-(1,3-benzodioxol-5-ylmethyl)-N-[(1-butyl-2-cycloproyl-4-phenyl-1H-imidazol-5yl)methyl]methanamine] | > 6.00 |
| CCCCn1c(C2=CCCCC2)nc(-c2ccccc2)c1CN(Cc1ccc2c(c1)OCO2)Cc1ccc2c(c1)OCO2 [Compound 12, 1-(1,3-benzodioxol-5-yl)-N-(1,3-benzodioxol-5-ylmethyl)-N-[(1-butyl-2-cyclohex-1-en-1-yl-4-phenyl-1H-imidazol-5-yl)methyl]methanamine] | > 6.00 |
| CCCCn1c(C2CC=CCC2)nc(-c2ccccc2)c1CN(Cc1ccc2c(c1)OCO2)Cc1ccc2c(c1)OCO2 (centres unmarked) [Compound 13, 1-(1,3-benzodioxol-5-yl)-N-(1,3-benzodioxol-5-ylmethyl)-N-[(1-butyl-2-cyclohex-3-enyl-4-phenyl-1H-imidazol-5-yl)methyl]methanamine] | > 6.00 |
| CCCCn1c(N2CCOCC2)nc(Cl)c1CN(Cc1ccc(C(=O)OC)cc1)Cc1ccc2c(c1)OCCO2 [Compound 14, methyl 4-{[[(1-butyl-4-chloro-2-morpholin-4-yl-1H-imidazol-5-yl)methyl](2,3-dihydro-1,4-benzodioxin-6-ylmethyl)amino]methyl}benzoate] | > 6.00 |
| CCCCn1c(N2CCOCC2)nc(Cl)c1CN(Cc1ccc(C(=O)O)cc1)Cc1ccc2c(c1)OCCO2 [Compound 15, 4-{[[(1-butyl-4-chloro-2-morpholin-4-yl-1H-imidazol-5-yl)methyl](2,3-dihydro-1,4-benzodioxin-6-ylmethyl)amino]methyl}benzoic acid] | > 6.00 |
| CCCCN(Cc1ccc2[nH]ccc2c1)Cc1c(Cl)nc(N2CCOCC2)n1CCCC [Compound 16, N-[(1-butyl-4-chloro-2-morpholin-4-yl-1H-imidazol-5-yl)methyl]-N-(1H-indol-5-ylmethyl)butan-1-amine] | > 6.00 |
| CCCCN(Cc1ccc2c(c1)OCCO2)Cc1c(Cl)nc(N2CCOCC2)n1CCCC [Compound 17, N-[(1-butyl-4-chloro-2-morpholin-4-yl-1H-imidazol-5-yl)methyl]-N-(2,3-dihydro-1,4-benzodioxin-6-ylmethyl)butan-1-amine] | > 6.00 |
| CCCCn1c(N2CCOCC2)nc(Cl)c1CN(CCC(C)C)Cc1ccc2c(c1)OCCO2 [Compound 18, N-[(1-butyl-4-chloro-2-morpholin-4-yl-1H-imidazol-5-yl)methyl]-N-(2,3-dihydro-1,4-benzodioxin-6-ylmethyl)-3-methylbutan-1-amine] | > 6.00 |
| CCCCN(Cc1c(Cl)nc(N2CCOCC2)n1CCCC)C(C)c1ccc2c(c1)OCCO2 (centres unmarked) [Compound 19, N-[(1-butyl-4-chloro-2-morpholin-4-yl-1H-imidazol-5-yl)methyl]-N-[1-(2,3-dihydro-1,4-benzodioxin-6-yl)ethyl]butan-1-amine] | > 6.00 |
| CCCCn1c(N2CCOCC2)nc(Cl)c1CN(CCC(C)C)C(C)c1ccc2c(c1)OCCO2 (centres unmarked) [Compound 20, N-{(1-butyl-4-chloro-2-morpholin-4-yl-1H-imidazol-5-yl)methyl]-N-[1-(2,3-dihydro-1,4-benzodioxin-6-yl)ethyl]-3-methylbutan-1-amine] | > 6.00 |
| CCCCn1c(N2CCCCC2)nc(Cl)c1CN(Cc1cccc(OCC)c1)Cc1ccc2c(c1)OCCO2 [Compound 21, 1-(1-butyl-4-chloro-2-piperidin-1-yl-1H-imidazol-5-yl)-N-(2,3-dihydro-1,4-benzodioxin-6-ylmethyl)-N-(3-ethoxybenzyl)methanamine] | > 6.00 |
| CCCCn1c(N2CCOCC2)nc(Cl)c1CN(CCC(C)C)Cc1ccc2c(c1)CCCN2 [Compound 22] | > 6.00 |
